Results reported in the supplement of paper PMC10307832.

Experiments:
Test in all cases: relative viability (nuclei count vs DMSO), 5 days (fraction); higher = more cells survive
NCI-H1563 = tested on: NCI-H1563
Method in brief: (§1)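 Each reported value is a median over duplicate plates. It expresses relative viability: treated-well nuclei count divided by vehicle-well nuclei count. Lung cancer cell lines in 1536-well plates were dosed by pin tool a day after seeding, alone with one drug or with a fixed anchor-drug dose plus five library-drug doses (not always all listed) in √10 steps, and nuclei were counted after 5 days.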

NCI-H650 = tested on: NCI-H650
Method in brief: as §1

HARA = tested on: HARA
Method in brief: as §1

201T = tested on: 201T
Method in brief: as §1

BEN = tested on: BEN
Method in brief: as §1

LU99A = tested on: LU99A
Method in brief: as §1

EMC-BAC-2 = tested on: EMC-BAC-2
Method in brief: as §1

NCI-H2087 = tested on: NCI-H2087
Method in brief: as §1

NCI-H2126 = tested on: NCI-H2126
Method in brief: as §1

LOU-NH91 = tested on: LOU-NH91
Method in brief: as §1

SK-MES-1 = tested on: SK-MES-1
Method in brief: as §1

NCI-H1395 = tested on: NCI-H1395
Method in brief: as §1

NCI-H1993 = tested on: NCI-H1993
Method in brief: as §1

HCC-78 = tested on: HCC-78
Method in brief: as §1

RERF-LC-KJ = tested on: RERF-LC-KJ
Method in brief: as §1

H3255 = tested on: H3255
Method in brief: as §1

LC-2-ad = tested on: LC-2-ad
Method in brief: as §1

LXF-289 = tested on: LXF-289
Method in brief: as §1

HOP-62 = tested on: HOP-62
Method in brief: as §1

UMC-11 = tested on: UMC-11
Method in brief: as §1

COR-L 105 = tested on: COR-L 105
Method in brief: as §1

Cc1csc(=NC2CCCCC2)n1/N=C/c1ccc(O)c(O)c1O [MIM1] + C[C@]1(O)C[C@@H](c2nc(-c3ccc4ccc(-c5ccccc5)nc4c3)c3c(N)nccn32)C1 [Linsitinib] (partner 1 µM)
relative viability (NCI-H1563; first compound 0.2 µM): 1.13
relative viability (NCI-H1563; first compound 0.6325 µM): 1.29
relative viability (NCI-H1563; first compound 2 µM): 1.1
relative viability (NCI-H1563; first compound 6.325 µM): 0.977
relative viability (NCI-H1563; first compound 20 µM): 0.957
relative viability (NCI-H650; first compound 0.2 µM): 0.964
relative viability (NCI-H650; first compound 0.6325 µM): 0.843
relative viability (NCI-H650; first compound 2 µM): 0.938
relative viability (NCI-H650; first compound 6.325 µM): 0.824
relative viability (NCI-H650; first compound 20 µM): 0.234
relative viability (HARA; first compound 0.2 µM): 0.9
relative viability (HARA; first compound 0.6325 µM): 0.926
relative viability (HARA; first compound 2 µM): 0.909
relative viability (HARA; first compound 6.325 µM): 0.92
relative viability (HARA; first compound 20 µM): 0.187
relative viability (201T; first compound 0.2 µM): 1.02
relative viability (201T; first compound 0.6325 µM): 1.04
relative viability (201T; first compound 2 µM): 1.04
relative viability (201T; first compound 6.325 µM): 1.03
relative viability (201T; first compound 20 µM): 1.25
relative viability (BEN; first compound 0.2 µM): 0.888
relative viability (BEN; first compound 0.6325 µM): 0.877
relative viability (BEN; first compound 2 µM): 0.981
relative viability (BEN; first compound 6.325 µM): 0.826
relative viability (BEN; first compound 20 µM): 0.42
relative viability (LU99A; first compound 0.2 µM): 0.528
relative viability (LU99A; first compound 0.6325 µM): 0.57
relative viability (LU99A; first compound 2 µM): 0.489
relative viability (LU99A; first compound 6.325 µM): 0.545
relative viability (LU99A; first compound 20 µM): 0.284
relative viability (EMC-BAC-2; first compound 0.2 µM): 0.776
relative viability (EMC-BAC-2; first compound 0.6325 µM): 0.822
relative viability (EMC-BAC-2; first compound 2 µM): 0.784
relative viability (EMC-BAC-2; first compound 6.325 µM): 0.757
relative viability (EMC-BAC-2; first compound 20 µM): 0.328
relative viability (NCI-H2087; first compound 0.2 µM): 0.935
relative viability (NCI-H2087; first compound 0.6325 µM): 0.833
relative viability (NCI-H2087; first compound 2 µM): 0.989
relative viability (NCI-H2087; first compound 6.325 µM): 0.693
relative viability (NCI-H2087; first compound 20 µM): 0.428
relative viability (NCI-H2126; first compound 0.2 µM): 0.715
relative viability (NCI-H2126; first compound 0.6325 µM): 0.695
relative viability (NCI-H2126; first compound 2 µM): 0.744
relative viability (NCI-H2126; first compound 6.325 µM): 0.707
relative viability (NCI-H2126; first compound 20 µM): 0.702
relative viability (LOU-NH91; first compound 0.2 µM): 0.882
relative viability (LOU-NH91; first compound 0.6325 µM): 0.978
relative viability (LOU-NH91; first compound 2 µM): 0.728
relative viability (LOU-NH91; first compound 6.325 µM): 0.851
relative viability (LOU-NH91; first compound 20 µM): 0.592
relative viability (SK-MES-1; first compound 0.2 µM): 0.988
relative viability (SK-MES-1; first compound 0.6325 µM): 0.988
relative viability (SK-MES-1; first compound 2 µM): 1.02
relative viability (SK-MES-1; first compound 6.325 µM): 0.853
relative viability (SK-MES-1; first compound 20 µM): 0.848
relative viability (NCI-H1395; first compound 0.2 µM): 0.927
relative viability (NCI-H1395; first compound 0.6325 µM): 1.03
relative viability (NCI-H1395; first compound 2 µM): 1.07
relative viability (NCI-H1395; first compound 6.325 µM): 0.606
relative viability (NCI-H1395; first compound 20 µM): 0.355
relative viability (NCI-H1993; first compound 0.2 µM): 0.736
relative viability (NCI-H1993; first compound 0.6325 µM): 0.715
relative viability (NCI-H1993; first compound 2 µM): 0.63
relative viability (NCI-H1993; first compound 6.325 µM): 0.68
relative viability (NCI-H1993; first compound 20 µM): 0.646
relative viability (HCC-78; first compound 0.2 µM): 0.551
relative viability (HCC-78; first compound 0.6325 µM): 0.594
relative viability (HCC-78; first compound 2 µM): 0.488
relative viability (HCC-78; first compound 6.325 µM): 0.439
relative viability (HCC-78; first compound 20 µM): 0.541
relative viability (RERF-LC-KJ; first compound 0.2 µM): 0.81
relative viability (RERF-LC-KJ; first compound 0.6325 µM): 0.866
relative viability (RERF-LC-KJ; first compound 2 µM): 0.773
relative viability (RERF-LC-KJ; first compound 6.325 µM): 0.473
relative viability (RERF-LC-KJ; first compound 20 µM): 0.287
relative viability (H3255; first compound 0.2 µM): 0.901
relative viability (H3255; first compound 0.6325 µM): 0.918
relative viability (H3255; first compound 2 µM): 0.883
relative viability (H3255; first compound 6.325 µM): 0.637
relative viability (H3255; first compound 20 µM): 0.406
relative viability (LC-2-ad; first compound 0.2 µM): 0.794
relative viability (LC-2-ad; first compound 0.6325 µM): 0.744
relative viability (LC-2-ad; first compound 2 µM): 0.856
relative viability (LC-2-ad; first compound 6.325 µM): 0.547
relative viability (LC-2-ad; first compound 20 µM): 0.132
relative viability (LXF-289; first compound 0.2 µM): 0.943
relative viability (LXF-289; first compound 0.6325 µM): 0.923
relative viability (LXF-289; first compound 2 µM): 0.943
relative viability (LXF-289; first compound 6.325 µM): 0.787
relative viability (LXF-289; first compound 20 µM): 0.624
relative viability (HOP-62; first compound 0.2 µM): 0.977
relative viability (HOP-62; first compound 0.6325 µM): 1.04
relative viability (HOP-62; first compound 2 µM): 0.905
relative viability (HOP-62; first compound 6.325 µM): 0.658
relative viability (HOP-62; first compound 20 µM): 0.936
relative viability (UMC-11; first compound 0.2 µM): 1.02
relative viability (UMC-11; first compound 0.6325 µM): 1.01
relative viability (UMC-11; first compound 2 µM): 1.02
relative viability (UMC-11; first compound 6.325 µM): 0.66
relative viability (UMC-11; first compound 20 µM): 0.233
relative viability (COR-L 105; first compound 0.2 µM): 0.899
relative viability (COR-L 105; first compound 0.6325 µM): 1.04
relative viability (COR-L 105; first compound 2 µM): 0.898
relative viability (COR-L 105; first compound 6.325 µM): 0.962
relative viability (COR-L 105; first compound 20 µM): 0.796
